Laboratory results taken from patent US20120277197A1, “TIGECYCLINE FORMULATIONS” (WYETH, priority 2008, published 2012).

Assays:
[1] = simple oral immediate release prototypes, animals; cited from earlier work
[2] = Effect of pH on stability of tigecycline 0.50 mg/ml in Normal Saline, in a flask at 25° C.; type: physicochemical
Experimental: The effect of pH on the stability of tigecycline formulations having a concentration of 0.50 mg tigecycline/ml in a Normal Saline solution was studied by analyzing the variation of tigecycline content, total impurity content, and the concentration of tigecycline epimer at different pH values, either in the presence of air or under an atmosphere having an oxygen content of less than 1 ppm, in a flask at 25° C.

[3] = pH 3, 0 h, in the presence of air
[4] = pH 3, 8 h, in the presence of air
[5] = pH 3, 24 h, in the presence of air
[6] = pH 3, 72 h, in the presence of air
[7] = pH 3.5, 0 h, in the presence of air
[8] = pH 3.5, 8 h, in the presence of air
[9] = pH 3.5, 24 h, in the presence of air
[10] = pH 3.5, 72 h, in the presence of air
[11] = pH 4.0, 0 h, in the presence of air
[12] = pH 4.0, 24 h, in the presence of air
[13] = pH 4.0, 72 h, in the presence of air
[14] = pH 4.5, 0 h, in the presence of air
[15] = pH 4.5, 8 h, in the presence of air
[16] = pH 4.5, 24 h, in the presence of air

## CN(C)c1cc(NC(=O)CNC(C)(C)C)c(O)c2c1C[C@H]1C[C@H]3[C@H](N(C)C)C(O)=C(C(N)=O)C(=O)[C@@]3(O)C(O)=C1C2=O [tigecycline, Tigecycline]
[1]
  bioavailability: poor bioavailability
[2]; in the presence of air
  pH at which the solution is most stable, based on total impurity content and tigecycline content: 4.5-5.0
[2]; oxygen <1 ppm
  pH at which the solution is most stable: 4.5-6.0
[2]; [3]
  Total impurity content as a % of initial weight of tigecycline: 0.36%
  Total tigecycline epimer content as a % of initial weight of tigecycline: 0.19%
[2]; pH 3.0, 0 h, in the presence of air
  Percentage of tigecycline remaining: 100%
[2]; pH 3, 0 h, oxygen <1 ppm
  Total impurity content as a % of initial weight of tigecycline: 0.258%
  Total tigecycline epimer content as a % of initial weight of tigecycline: 0.152%
[2]; pH 3.0, 0 h, oxygen <1 ppm
  Percentage of tigecycline remaining: 100.0%
[2]; [4]
  Total impurity content as a % of initial weight of tigecycline: 0.907%
  Total tigecycline epimer content as a % of initial weight of tigecycline: 0.83%
[2]; pH 3.0, 8 h, in the presence of air
  Percentage of tigecycline remaining: 100%
[2]; pH 3, 8 h, oxygen <1 ppm
  Total impurity content as a % of initial weight of tigecycline: 0.628%
  Total tigecycline epimer content as a % of initial weight of tigecycline: 0.485%
[2]; pH 3.0, 8 h, oxygen <1 ppm
  Percentage of tigecycline remaining: 99.55%
[2]; [5]
  Total impurity content as a % of initial weight of tigecycline: 2.564%
  Total tigecycline epimer content as a % of initial weight of tigecycline: 2.27%
[2]; pH 3.0, 24 h, in the presence of air
  Percentage of tigecycline remaining: 98%
[2]; pH 3, 24 h, oxygen <1 ppm
  Total impurity content as a % of initial weight of tigecycline: 2.391%
  Total tigecycline epimer content as a % of initial weight of tigecycline: 2.267%
[2]; pH 3.0, 24 h, oxygen <1 ppm
  Percentage of tigecycline remaining: 98.08%
[2]; [6]
  Total impurity content as a % of initial weight of tigecycline: 8.3%
  Total tigecycline epimer content as a % of initial weight of tigecycline: 7.58%
[2]; pH 3.0, 72 h, in the presence of air
  Percentage of tigecycline remaining: 93%
[2]; pH 3, 72 h, oxygen <1 ppm
  Total impurity content as a % of initial weight of tigecycline: 7.853%
  Total tigecycline epimer content as a % of initial weight of tigecycline: 7.651%
[2]; pH 3.0, 72 h, oxygen <1 ppm
  Percentage of tigecycline remaining: 92.24%
[2]; [7]
  Percentage of tigecycline remaining: 100%
  Total impurity content as a % of initial weight of tigecycline: 0.35%
  Total tigecycline epimer content as a % of initial weight of tigecycline: 0.18%
[2]; pH 3.5, 0 h, oxygen <1 ppm
  Percentage of tigecycline remaining: 100.0%
  Total impurity content as a % of initial weight of tigecycline: 0.245%
  Total tigecycline epimer content as a % of initial weight of tigecycline: 0.133%
[2]; [8]
  Percentage of tigecycline remaining: 100%
  Total impurity content as a % of initial weight of tigecycline: 0.737%
  Total tigecycline epimer content as a % of initial weight of tigecycline: 0.47%
[2]; pH 3.5, 8 h, oxygen <1 ppm
  Percentage of tigecycline remaining: 100.19%
  Total impurity content as a % of initial weight of tigecycline: 0.559%
  Total tigecycline epimer content as a % of initial weight of tigecycline: 0.383%
[2]; [9]
  Percentage of tigecycline remaining: 100%
  Total impurity content as a % of initial weight of tigecycline: 1.727%
  Total tigecycline epimer content as a % of initial weight of tigecycline: 1.45%
[2]; pH 3.5, 24 h, oxygen <1 ppm
  Percentage of tigecycline remaining: 99.26%
  Total impurity content as a % of initial weight of tigecycline: 1.478%
  Total tigecycline epimer content as a % of initial weight of tigecycline: 1.351%
[2]; [10]
  Percentage of tigecycline remaining: 95%
  Total impurity content as a % of initial weight of tigecycline: 5.521%
  Total tigecycline epimer content as a % of initial weight of tigecycline: 4.83%
[2]; pH 3.5, 72 h, oxygen <1 ppm
  Percentage of tigecycline remaining: 96.03%
  Total impurity content as a % of initial weight of tigecycline: 4.913%
  Total tigecycline epimer content as a % of initial weight of tigecycline: 4.671%
[2]; [11]
  Percentage of tigecycline remaining: 100%
  Total impurity content as a % of initial weight of tigecycline: 0.32%
  Total tigecycline epimer content as a % of initial weight of tigecycline: 0.189%
[2]; [12]
  Percentage of tigecycline remaining: 100%
  Total impurity content as a % of initial weight of tigecycline: 1.06%
  Total tigecycline epimer content as a % of initial weight of tigecycline: 0.90%
[2]; [13]
  Percentage of tigecycline remaining: 98%
  Total impurity content as a % of initial weight of tigecycline: 3.129%
  Total tigecycline epimer content as a % of initial weight of tigecycline: 2.90%
[2]; [14]
  Percentage of tigecycline remaining: 100%
  Total impurity content as a % of initial weight of tigecycline: 0.30%
  Total tigecycline epimer content as a % of initial weight of tigecycline: 0.16%
[2]; pH 4.5, 0 h, oxygen <1 ppm
  Percentage of tigecycline remaining: 100.0%
  Total impurity content as a % of initial weight of tigecycline: 0.232%
  Total tigecycline epimer content as a % of initial weight of tigecycline: 0.116%
[2]; [15]
  Percentage of tigecycline remaining: 100%
  Total impurity content as a % of initial weight of tigecycline: 0.483%
  Total tigecycline epimer content as a % of initial weight of tigecycline: 0.30%
[2]; pH 4.5, 8 h, oxygen <1 ppm
  Percentage of tigecycline remaining: 99.69%
  Total impurity content as a % of initial weight of tigecycline: 0.368%
  Total tigecycline epimer content as a % of initial weight of tigecycline: 0.233%
[2]; [16]
  Percentage of tigecycline remaining: 99%
  Total impurity content as a % of initial weight of tigecycline: 0.75%
  Total tigecycline epimer content as a % of initial weight of tigecycline: 0.65%
